Ki data for 3 molecules are collected here from PMC12443555, “Structural modifications to pregnane neurosteroids alter inhibition of LPS/Lipid A binding at the MD-2 activation site within the TLR4 signaling complex” (Frontiers in Immunology, 2025).

Molecules are shown by their SMILES.

The Ki is a measure of affinity in units of concentration, obtained from inhibition or displacement.

This assay has as its target T1, Myeloid Differentiation factor 2 (MD-2) (Homo sapiens, UniProt Q9Y6Y9).
T1 construct: gene LY96; Recombinant human MD-2 (R&D Systems 1787-MD-050/CF)
T1 sequence (Q9Y6Y9 19-160): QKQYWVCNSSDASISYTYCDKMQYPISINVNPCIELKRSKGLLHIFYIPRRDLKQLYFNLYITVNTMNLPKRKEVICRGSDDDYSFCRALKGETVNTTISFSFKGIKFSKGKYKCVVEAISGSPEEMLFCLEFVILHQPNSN
In words: SPR competition against Lipid A ([…]) on immobilized MD-2. It counts as binding. The conditions noted are these: read-out: Inhibition Constant (Ki).
Regarding `C[C@@]1(O)CC[C@H]2[C@H](CC[C@@H]3[C@@H]2CC[C@]2(C)[C@@H](C(=O)Cn4nccn4)CC[C@@H]32)C1` [SGE 516], the inhibitory constant (Ki) amounted to 61.3 nM.
The figure for `CC(=O)[C@H]1CC[C@H]2[C@@H]3CCC4=CC(=O)CC[C@]4(C)[C@H]3CC[C@]12C` [progesterone] is 49.4 nM; for `C[C@]12CC[C@@H](O)C[C@@H]1CC[C@@H]1[C@@H]2CC[C@]2(C)[C@@H](C(=O)CO)CC[C@@H]12` [3α,5α-THDOC] it is 57.6 nM.
